Assay results: patent US11752125B2, “Anti-neuroinflammatory and protective compounds in Achillea fragrantissima” (THE STATE OF ISRAEL MINISTRY OF AGRICULTURE & RURAL …, priority 2013, dated 2023)

Legend:
[1] = test system: CREB; experiment: H2O2-induced CREB phosphorylation in astrocytes (ELISA); type: cell-based, rat; details: astrocytes pretreated 2 h, H2O2 175 μM 30 min; total CREB not affected
Protocol: Astrocytes were treated with TTF 2 h before the addition of H2O2. Cells were lysed 40 minutes after the addition of H2O2 in lysis buffer supplied by PathScan sandwich ELISA kit (Cell Signaling TECHNOLOGY) according to the manufacturer's protocol. Protein concentrations in cell lysates were determined by Bradford reagent (Bio-Rad, Hercules, Calif.), and equal amounts of proteins were subjected to ELISA. To measure the amount of total and phosphoSAPK/JNK in cell lysates of astrocytes, ELISA was performed according to the manufacturer's protocol using the PathScan total SAPK/JNK sandwich ELISA kit (Cell Signaling TECHNOLOGY) and the PathScan phospho-SAPK/JNK (Thr183/Tyr185) sandwich ELISA kit (Cell Signaling TECHNOLOGY), respectively. […] The optical density was determined at 450 nm using a microplate reader.
1. […] Determine the optical density at 450 nm using a microplate reader.
Astrocytes were treated with 175 μM of H2O2 for 30 min following preincubation with TTF for 2 h. The levels of phosphorylated and total CREB were measured by ELISA. […]

[2] = test system: N2a neuronal cells; experiment: SNP-induced ROS elevation in N2a cells; type: cell-based; details: TTF 2 μM; SNP 250 μM; 20 h
Protocol: N2a neuronal cells were pre-loaded with DCF-DA for 30 min and washed. TTF (2 μM) was added to cells before (−2 h, −1 h), concomitant with (0) or after (1 h, 2 h) the addition of SNP (250 μM). ROS levels in neuronal cells were measured 20 h after the application of SNP. The results are shown in FIG. 18 and are the mean±SEM of two different experiments (n=15).

[3] = test system: MMP-9; experiment: MMP-9 activity in LPS-activated microglial cells (gelatin zymography); type: cell-based, rat; details: LPS 4.5 ng/mL, 24 h
From the text: Determination of MMP Activities in Conditioned Media of Microglial Cells. MMP-9 activity was quantified by gelatin zymography.
1. Prepare a primary culture of microglial cells and plate cells as described in “Anti-neuroinflammatory effects of the extract of achillea fragrantissima” 2011. A. Elmann, S. Mordechay, H. Erlank, A. Telerman, M. Rindner, R. Ofir. BMC Complementary and Alternative Medicine. 11:98; 2. Treat cells with freshly diluted AcA of the invention; 3. Activate microglial cells with lipopolysaccharide (LPS, 4.5 nanograms/mL); 4. Measure the levels of MMP-9 by gel zymography as described in “Anti-neuroinflammatory effects of the extract of achillea fragrantissima” 2011. A. Elmann, S. Mordechay, H. Erlank, A. Telerman, M. Rindner, R. Ofir. BMC Complementary and Alternative Medicine. 11:98. 5. […]
Microglial cells were treated with the indicated concentrations of achillolide A, followed by stimulation with LPS (4.5 ng/mL). […] The levels of MMP-9 transcripts were measured by quantitative real-time PCR. The results from three technical replicates were normalized to β-actin and are expressed as relative quantity of MMP-9 transcripts in FIG. 23 B. The results are means±SD of one representative experiment out of three experiments. Cell viability was determined 24 h later by the crystal violet assay. […]

Structure (SMILES)	inhibition of H2O2-induced phosphorylation of CREB [1] [%]	effect on SNP-induced ROS elevation [2]	effect on LPS-induced MMP-9 activity [3]
COc1cc(-c2oc3cc(OC)c(OC)c(O)c3c(=O)c2O)ccc1O [TTF, 3,5,4′-trihydroxy-6,7,3′-trimethoxyflavone]	80	attenuates the elevation in ROS levels	–
C=C1CCC2=C(CO)C(=O)O[C@H]2/C=C(\C)[C@H](OC(C)=O)CC1=O [achillolide A]	–	–	markedly inhibited
